Source: PMC9393165 (Scientific Reports, 2022)
Marks after values point to notes of the source that are not given here.

How the values were obtained:
[1] = Proportions of kidney transplant recipients with subtherapeutic or supratherapeutic tacrolimus trough concentration; assay type: in vivo, human
Procedure: All participants received oral, immediate-release tacrolimus (Prograf®; Astellas, Kerry, Ireland). According to Siriraj Hospital protocol, the initial dose (0.05 mg/kg every 12 h) of tacrolimus was started 2 days before KT (day − 2) and subsequently adjusted after KT based on efficacy and toxicity and to maintain morning trough concentrations of 7 to 10 ng/mL in standard risk patients and 10 to 12 ng/mL in high-risk patients during the first week after transplantation. Participants also received either mycophenolate mofetil (Cellcept®; F Hoffmann-La Roche Ltd, Basel, Switzerland or Immucept®; Intas Pharmaceuticals Ltd., Gujarat, India) or mycophenolate sodium (Myfortic®; Novartis Pharma Stein, Switzerland for Novartis AG, Basel, Switzerland) at the dosage equivalent to 2 g/day of mycophenolate mofetil. A tapered corticosteroid regimen was administered consisting of an intravenous bolus of 500 mg of methylprednisolone (Solu-medrol®; Novartis Pharma Stein, Switzerland for Novartis AG, Basel, Switzerland) on day 0, 250 mg on day 1, 125 mg on day 2 followed by 40 mg/day of prednisolone on day 4 after KT. The subsequent prednisolone doses were gradually tapered thereafter. Induction therapy with basiliximab (Simulect®; Novartis Pharma AG, Basel, Switzerland) was allowed.
On day 7 post-KT, after the tacrolimus dosage was stable for at least 48 h, venous blood samples (5 mL) were collected at pre-dose and 1, 2, 4, 6, 8 and 12 h after the morning dose of tacrolimus. Samples were collected in EDTA tubes and stored at 4 degrees Celsius until analysis. Whole blood tacrolimus concentrations were determined within the same day of blood collection by using a chemiluminescent microparticle immunoassay method with […] system® i2000 (Abbott, Abbott Diagnostic, USA). The method was linear in the concentration range up to 30 ng/mL, the limits of quantification were 0.8 ng/mL, and the coefficient of variation of within run precision and between run precision were less than 10%. Mean recovery was 100 ± 10% according to the manufacturer’s information.
The primary outcome measure was AUC/D at day 7 post-KT. […]

[2] = Clinical outcomes after kidney transplantation (hypotension, DGF, BPAR, post-transplant diabetes, tremor); assay type: in vivo, human
Procedure: For calculation of AUC/D and C0/D, values of AUC and C0 were dose-adjusted by dividing the observed values by the dose recorded on the day of blood collection. Early-morning blood pressures were measured on the same day of blood collection for pharmacokinetic analysis by a ward nurse as part of a routine examination, during rest in a seated position with a calibrated and well-maintained automatic sphygmomanometer. Delayed graft function (DGF) was defined as failure of the kidney graft to function immediately, with the need for dialysis in the first 7 days post-KT. Episode of biopsy-proven acute rejection (BPAR) during 3 months post-KT was diagnosed based on histologic findings in indication kidney graft biopsy according to Banff 2015 criteria.

[3] = day 1 post-transplantation, CYP3A5 expressers, diltiazem (n = 11)
[4] = day 1 post-transplantation, CYP3A5 expressers, placebo (n = 12)
[5] = day 1 post-transplantation, CYP3A5 non-expressers, diltiazem (n = 9)
[6] = day 1 post-transplantation, CYP3A5 non-expressers, placebo (n = 8)
[7] = day 1 post-transplantation, total (n = 40)
[8] = day 3 post-transplantation, CYP3A5 expressers, diltiazem (n = 11)
[9] = day 3 post-transplantation, CYP3A5 expressers, placebo (n = 12)
[10] = day 3 post-transplantation, CYP3A5 non-expressers, diltiazem (n = 9)
[11] = day 3 post-transplantation, CYP3A5 non-expressers, placebo (n = 8)
[12] = day 3 post-transplantation, total (n = 40)
[13] = day 5 post-transplantation, CYP3A5 expressers, diltiazem (n = 11)
[14] = day 5 post-transplantation, CYP3A5 expressers, placebo (n = 12)
[15] = day 5 post-transplantation, CYP3A5 non-expressers, diltiazem (n = 9)
[16] = day 5 post-transplantation, CYP3A5 non-expressers, placebo (n = 8)
[17] = day 5 post-transplantation, total (n = 40)
[18] = day 7 post-transplantation, CYP3A5 expressers, diltiazem (n = 11)
[19] = day 7 post-transplantation, CYP3A5 expressers, placebo (n = 12)
[20] = day 7 post-transplantation, CYP3A5 non-expressers, diltiazem (n = 9)
[21] = day 7 post-transplantation, CYP3A5 non-expressers, placebo (n = 8)
[22] = day 7 post-transplantation, total (n = 40)

Trough concentration higher than 15 ng/mL [1, 3]: 1 (9.1) n (%)
Trough concentration lower than 5 ng/mL [1, 3]: 0 (0) n (%)
Trough concentration lower than the target range [1, 3]: 1 (9.1) n (%)
Trough concentration higher than 15 ng/mL [1, 4]: 0 (0) n (%)
Trough concentration lower than 5 ng/mL [1, 4]: 4 (33.3) n (%)
Trough concentration lower than the target range [1, 4]: 7 (58.3) n (%)
Trough concentration higher than 15 ng/mL [1, 5]: 3 (33.3) n (%)
Trough concentration lower than 5 ng/mL [1, 5]: 1 (11.1) n (%)
Trough concentration lower than the target range [1, 5]: 2 (22.2) n (%)
Trough concentration higher than 15 ng/mL [1, 6]: 3 (37.5) n (%)
Trough concentration lower than 5 ng/mL [1, 6]: 1 (12.5) n (%)
Trough concentration lower than the target range [1, 6]: 2 (25.0) n (%)
Trough concentration higher than 15 ng/mL [1, 7]: 7 (17.5) n (%)
Trough concentration lower than 5 ng/mL [1, 7]: 6 (15.0) n (%)
Trough concentration lower than the target range [1, 7]: 12 (30.0) n (%)
Trough concentration lower than 5 ng/mL ([1]; day 3 post-transplantation, CYP3A5 expressers, diltiazem (EXdtz, n = 11)): 1 (9.1) n (%)
Trough concentration lower than 5 ng/mL ([1]; day 3 post-transplantation, CYP3A5 expressers, diltiazem (EXdtz, n = 11), listed as tacrolimus): one
Trough concentration higher than 15 ng/mL [1, 8]: 0 (0) n (%)
Trough concentration lower than the target range [1, 8]: 2 (18.2)^b n (%)
Trough concentration lower than 5 ng/mL ([1]; day 3 post-transplantation, CYP3A5 expressers, placebo (EXplb, n = 12)): 4 (33.3) n (%)
Trough concentration lower than 5 ng/mL ([1]; day 3 post-transplantation, CYP3A5 expressers, placebo (EXplb, n = 12), listed as tacrolimus): four
Trough concentration higher than 15 ng/mL [1, 9]: 0 (0) n (%)
Trough concentration lower than the target range [1, 9]: 8 (66.7) n (%)
Trough concentration lower than 5 ng/mL ([1]; day 3 post-transplantation, CYP3A5 non-expressers, diltiazem (NEdtz, n = 9)): 0 (0) n (%)
Trough concentration lower than 5 ng/mL ([1]; day 3 post-transplantation, CYP3A5 non-expressers, diltiazem (NEdtz, n = 9), listed as tacrolimus): none
Trough concentration higher than 15 ng/mL [1, 10]: 0 (0) n (%)
Trough concentration lower than the target range [1, 10]: 0 (0)^b n (%)
Trough concentration lower than 5 ng/mL ([1]; day 3 post-transplantation, CYP3A5 non-expressers, placebo (NEplb, n = 8)): 0 (0) n (%)
Trough concentration lower than 5 ng/mL ([1]; day 3 post-transplantation, CYP3A5 non-expressers, placebo (NEplb, n = 8), listed as tacrolimus): none
Trough concentration higher than 15 ng/mL [1, 11]: 1 (12.5) n (%)
Trough concentration lower than the target range [1, 11]: 0 (0)^b n (%)
Trough concentration higher than 15 ng/mL [1, 12]: 1 (2.5) n (%)
Trough concentration lower than 5 ng/mL [1, 12]: 5 (12.5) n (%)
Trough concentration lower than the target range [1, 12]: 10 (25.0) n (%)
Trough concentration higher than 15 ng/mL [1, 13]: 0 (0) n (%)
Trough concentration lower than 5 ng/mL [1, 13]: 1 (9.1) n (%)
Trough concentration lower than the target range [1, 13]: 7 (63.6) n (%)
Trough concentration higher than 15 ng/mL [1, 14]: 0 (0) n (%)
Trough concentration lower than 5 ng/mL [1, 14]: 1 (8.3) n (%)
Trough concentration lower than the target range [1, 14]: 7 (58.3) n (%)
Trough concentration higher than 15 ng/mL [1, 15]: 0 (0) n (%)
Trough concentration lower than 5 ng/mL [1, 15]: 0 (0) n (%)
Trough concentration lower than the target range [1, 15]: 2 (22.2) n (%)
Trough concentration higher than 15 ng/mL [1, 16]: 0 (0) n (%)
Trough concentration lower than 5 ng/mL [1, 16]: 2 (25.0) n (%)
Trough concentration lower than the target range [1, 16]: 2 (25.0) n (%)
Trough concentration higher than 15 ng/mL [1, 17]: 0 (0) n (%)
Trough concentration lower than 5 ng/mL [1, 17]: 4 (10.0) n (%)
Trough concentration lower than the target range [1, 17]: 18 (45.0) n (%)
Trough concentration higher than 15 ng/mL [1, 18]: 0 (0) n (%)
Trough concentration lower than 5 ng/mL [1, 18]: 0 (0) n (%)
Trough concentration lower than the target range [1, 18]: 6 (54.5) n (%)
Trough concentration higher than 15 ng/mL [1, 19]: 0 (0) n (%)
Trough concentration lower than 5 ng/mL [1, 19]: 0 (0) n (%)
Trough concentration lower than the target range [1, 19]: 1 (8.3) n (%)
Trough concentration higher than 15 ng/mL [1, 20]: 0 (0) n (%)
Trough concentration lower than 5 ng/mL [1, 20]: 0 (0) n (%)
Trough concentration lower than the target range [1, 20]: 3 (33.3) n (%)
Trough concentration higher than 15 ng/mL [1, 21]: 0 (0) n (%)
Trough concentration lower than 5 ng/mL [1, 21]: 0 (0) n (%)
Trough concentration lower than the target range [1, 21]: 2 (25.0) n (%)
Trough concentration higher than 15 ng/mL [1, 22]: 0 (0) n (%)
Trough concentration lower than 5 ng/mL [1, 22]: 0 (0) n (%)
Trough concentration lower than the target range [1, 22]: 12 (30.0) n (%)
Tremor ([2]; during 3 months after transplantation, 40 KTRs): No study patients reported tremor
Post-transplant diabetes mellitus ([2]; during 3 months after transplantation, 40 KTRs, one in EXplb, one in EXdtz): 5%
Compound: C=CC[C@@H]1/C=C(\C)C[C@H](C)C[C@H](OC)[C@H]2O[C@@](O)(C(=O)C(=O)N3CCCC[C@H]3C(=O)O[C@H](/C(C)=C/[C@@H]3CC[C@@H](O)[C@H](OC)C3)[C@H](C)[C@@H](O)CC1=O)[C@H](C)C[C@@H]2OC [Tacrolimus]
Biopsy-proven acute rejection (BPAR) ([2]; during 3 months after transplantation, 40 KTRs on tacrolimus-based regimen, one in EXdtz, one in NEplb): 5%
DGF, suspected rejection, or BPAR ([2]; first week post-KT, 40 KTRs on tacrolimus-based regimen): None
